In patent US20050107386A1, “Methods of treating diseases and disorders by targeting multiple kinases” (priority 2003, published 2005):

Columns and labels:
Type in all cases: biochemical
Blk(m) = Blk(m) (Mus musculus, UniProt P16277); assay: Blk(m) kinase assay; details: 3 μM; percent of control kinase activity
Experimental: (§1) Six compounds (presumptive single agents) were tested against a panel of 50 kinases. The results are presented in Table 2; numbers for each kinase indicate the percent of control kinase activity in the presence of a 3μM concentration of the indicated agent.
(§2) Agents that target two or more different kinases are useful in the methods of the invention as described elsewhere herein. Such compounds may be identified, and their effect on certain kinases may be identified, using the assays briefly described below in Examples 4-83. Each of these assays was carried out as described in Davies et al., Biochem. J., 351:95-105 (2000). All assays were carried out at 10 μM ATP unless otherwise noted.
In a final reaction volume of 25 μl, Blk (m) (5-10 mU) is incubated with 50 mM Tris pH 7.5, 0.1 mM EGTA, 0.1 mM NaVanadate, 0.1% β-mercaptoethanol, 0.1 mg/ml poly(Glu, Tyr) 4:1, 10 mM MgAcetate and [γ-^33P-ATP] (specific activity approx. 500 cpm/pmol, concentration as required). The reaction is initiated by the addition of Mg^2+ [γ-^33P-ATP]. After incubation for 40 minutes at room temperature, the reaction is stopped by the addition of 5 μl of a 3% phosphoric acid solution. 10 μl of the reaction is then spotted onto a Filtermat A and washed three times for 5 minutes in 75 mM phosphoric acid and once in methanol prior to drying and scintillation counting.

CDK5/p35(h) = CDK5/p35(h) (Homo sapiens, UniProt Q00535); assay: CDK5/p35(h) kinase assay; details: 3 μM; percent of control kinase activity
Chain of CDK5/p35(h) (Q00535 whole entry): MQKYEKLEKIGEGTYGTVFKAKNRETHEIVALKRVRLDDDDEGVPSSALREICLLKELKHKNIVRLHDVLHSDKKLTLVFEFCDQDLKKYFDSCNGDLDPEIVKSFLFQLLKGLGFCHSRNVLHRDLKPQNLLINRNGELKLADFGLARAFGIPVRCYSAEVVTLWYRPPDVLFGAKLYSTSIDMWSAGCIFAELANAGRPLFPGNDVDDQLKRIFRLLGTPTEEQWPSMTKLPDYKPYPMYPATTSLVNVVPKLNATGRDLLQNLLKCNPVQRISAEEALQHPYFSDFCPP
Chain of CDK5/p35(h) (Q15078 whole entry partner): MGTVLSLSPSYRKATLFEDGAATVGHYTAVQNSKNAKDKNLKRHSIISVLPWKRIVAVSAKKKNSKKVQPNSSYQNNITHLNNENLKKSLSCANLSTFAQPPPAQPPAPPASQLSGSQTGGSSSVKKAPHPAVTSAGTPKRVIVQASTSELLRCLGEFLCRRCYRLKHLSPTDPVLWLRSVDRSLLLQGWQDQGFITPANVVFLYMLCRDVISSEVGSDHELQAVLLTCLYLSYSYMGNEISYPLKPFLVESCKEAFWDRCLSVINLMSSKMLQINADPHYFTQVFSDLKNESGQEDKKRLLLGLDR
Experimental: as §1, §2
(§3) In a final reaction volume of 25 μl, CDK5/p35 (h) (5-10 mU) is incubated with 8 mM MOPS pH 7.0, 0.2 mM EDTA, 0.1 mg/ml histone H1, 10 mM MgAcetate and [γ-^33P-ATP] (specific activity approx. 500 cpm/pmol, concentration as required). The reaction is initiated by the addition of Mg^2+ [γ-^33P-ATP]. After incubation for 40 minutes at room temperature, the reaction is stopped by the addition of 5 μl of a 3% phosphoric acid solution. 10 μl of the reaction is then spotted onto a P30 filtermat and washed three times for 5 minutes in 75 mM phosphoric acid and once in methanol prior to drying and scintillation counting.

Yes(h) = Yes(h) (Homo sapiens, UniProt P07947); assay: Yes(h) kinase assay; details: for Inhibitory activity (% of control), Yes(h): 3 μM, percent of control kinase activity
Chain of Yes(h) (P07947 whole entry): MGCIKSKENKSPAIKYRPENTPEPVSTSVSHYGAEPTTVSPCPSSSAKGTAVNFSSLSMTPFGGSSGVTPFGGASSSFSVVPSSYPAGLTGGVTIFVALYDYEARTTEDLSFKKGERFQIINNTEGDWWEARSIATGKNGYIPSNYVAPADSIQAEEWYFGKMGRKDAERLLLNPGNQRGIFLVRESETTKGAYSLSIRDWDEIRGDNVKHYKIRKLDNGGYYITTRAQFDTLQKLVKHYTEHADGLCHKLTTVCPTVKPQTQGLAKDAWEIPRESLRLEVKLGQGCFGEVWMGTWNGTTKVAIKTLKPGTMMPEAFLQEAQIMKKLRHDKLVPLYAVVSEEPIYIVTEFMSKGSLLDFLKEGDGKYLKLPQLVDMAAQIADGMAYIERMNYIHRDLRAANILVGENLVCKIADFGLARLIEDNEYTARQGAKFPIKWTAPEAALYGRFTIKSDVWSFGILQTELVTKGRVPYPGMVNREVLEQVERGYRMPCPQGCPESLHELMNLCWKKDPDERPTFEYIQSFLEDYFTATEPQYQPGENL
Experimental: as §1, §2
as §3, with “Yes(h)” for “CDK5/p35 (h)”, “poly(Glu, Tyr) 4:1,” for “histone H1,”, “(Specific” for “(specific”, “Filtermat A” for “P30 filtermat”

ROCK-II(h) = ROCK-II(h) (Homo sapiens, UniProt O75116); assay: ROCK-II(h) kinase assay; details: 3 μM; percent of control kinase activity
Chain of ROCK-II(h) (O75116 whole entry): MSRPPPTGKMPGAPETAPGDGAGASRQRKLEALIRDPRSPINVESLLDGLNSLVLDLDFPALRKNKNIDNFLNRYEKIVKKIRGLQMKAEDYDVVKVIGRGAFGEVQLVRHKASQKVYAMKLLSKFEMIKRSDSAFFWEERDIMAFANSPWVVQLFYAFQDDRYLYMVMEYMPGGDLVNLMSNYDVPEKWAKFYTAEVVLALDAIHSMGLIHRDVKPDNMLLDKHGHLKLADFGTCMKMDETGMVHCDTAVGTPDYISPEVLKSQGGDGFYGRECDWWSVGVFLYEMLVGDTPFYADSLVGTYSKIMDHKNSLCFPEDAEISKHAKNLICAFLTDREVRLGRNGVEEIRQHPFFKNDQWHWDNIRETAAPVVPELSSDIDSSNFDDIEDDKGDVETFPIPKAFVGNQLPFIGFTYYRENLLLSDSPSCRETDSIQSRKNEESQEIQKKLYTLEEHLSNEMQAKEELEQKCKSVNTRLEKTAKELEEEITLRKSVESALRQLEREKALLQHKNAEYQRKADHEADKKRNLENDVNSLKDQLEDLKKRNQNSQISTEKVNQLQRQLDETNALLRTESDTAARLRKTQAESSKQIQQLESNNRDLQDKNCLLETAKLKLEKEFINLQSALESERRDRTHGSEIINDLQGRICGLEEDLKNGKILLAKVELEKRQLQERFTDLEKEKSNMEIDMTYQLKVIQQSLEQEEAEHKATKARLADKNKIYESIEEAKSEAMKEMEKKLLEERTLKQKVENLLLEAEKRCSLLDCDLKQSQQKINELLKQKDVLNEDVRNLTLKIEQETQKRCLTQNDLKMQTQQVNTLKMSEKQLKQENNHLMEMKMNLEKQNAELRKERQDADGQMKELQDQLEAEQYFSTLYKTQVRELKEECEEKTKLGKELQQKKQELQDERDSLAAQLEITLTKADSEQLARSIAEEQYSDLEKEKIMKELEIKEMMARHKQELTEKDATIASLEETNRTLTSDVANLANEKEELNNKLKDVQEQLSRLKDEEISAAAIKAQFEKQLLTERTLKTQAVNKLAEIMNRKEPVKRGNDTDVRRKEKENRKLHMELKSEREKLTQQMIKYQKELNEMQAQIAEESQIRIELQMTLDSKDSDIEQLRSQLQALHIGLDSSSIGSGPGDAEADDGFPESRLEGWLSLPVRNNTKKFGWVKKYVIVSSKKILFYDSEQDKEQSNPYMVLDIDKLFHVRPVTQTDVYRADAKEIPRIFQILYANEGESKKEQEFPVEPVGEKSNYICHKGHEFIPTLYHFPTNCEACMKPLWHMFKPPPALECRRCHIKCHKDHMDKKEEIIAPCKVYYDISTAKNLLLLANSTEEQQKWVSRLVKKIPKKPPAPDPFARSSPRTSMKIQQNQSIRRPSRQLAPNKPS
Experimental: as §1, §2
as §3, with “ROCK-II” for “CDK5/p35”, “50” for “8”, “Tris” for “MOPS”, “7.5, 0.1” for “7.0, 0.2”, “EGTA, 30 μM […] (SEQ ID NO:8),” for “EDTA, 0.1 mg/ml histone H1,”

ZAP-70(h) = target: T1, ZAP-70(h) (Homo sapiens, UniProt P43403); assay: ZAP-70(h) kinase assay; details: 3 μM; percent of control kinase activity
T1 sequence (P43403 1-619): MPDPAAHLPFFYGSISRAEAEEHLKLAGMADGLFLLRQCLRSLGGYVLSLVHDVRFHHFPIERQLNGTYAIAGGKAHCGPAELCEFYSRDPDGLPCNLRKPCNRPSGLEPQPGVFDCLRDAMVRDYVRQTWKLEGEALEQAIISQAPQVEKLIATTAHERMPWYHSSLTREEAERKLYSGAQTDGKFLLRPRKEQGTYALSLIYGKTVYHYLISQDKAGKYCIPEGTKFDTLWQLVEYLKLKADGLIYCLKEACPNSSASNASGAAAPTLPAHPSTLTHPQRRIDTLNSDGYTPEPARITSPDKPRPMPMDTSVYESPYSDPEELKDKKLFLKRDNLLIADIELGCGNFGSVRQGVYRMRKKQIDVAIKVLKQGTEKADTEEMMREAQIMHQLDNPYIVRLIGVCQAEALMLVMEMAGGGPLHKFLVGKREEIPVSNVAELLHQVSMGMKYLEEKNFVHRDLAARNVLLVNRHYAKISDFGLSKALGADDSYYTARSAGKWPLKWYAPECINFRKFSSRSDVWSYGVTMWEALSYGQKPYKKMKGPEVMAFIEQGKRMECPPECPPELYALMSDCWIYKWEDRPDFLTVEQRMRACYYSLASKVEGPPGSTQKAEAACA
Experimental: as §1, §2
In a final reaction volume of 25 μl, ZAP-70 (h) (5-10 mU) is incubated with 50 mM Tris pH 7.5, 0.1 mM EGTA, 0.1 mM NaVanadate, 0.1% β-mercaptoethanol, 0.1 mg/ml poly(Glu, Tyr) 4:1, 10 mM MnCl2, 10 mM MgAcetate and [γ-^33P-ATP] (Specific activity approx. 500 cpm/pmol, concentration as required). The reaction is initiated by the addition of Mg^2+ [γ-^33P-ATP]. After incubation for 40 minutes at room temperature, the reaction is stopped by the addition of 5 μl of a 3% phosphoric acid solution. 10 μl of the reaction is then spotted onto a Filtermat A and washed three times for 5 minutes in 75 mM phosphoric acid and once in methanol prior to drying and scintillation counting.

Chain of Blk(m) (P16277 whole entry): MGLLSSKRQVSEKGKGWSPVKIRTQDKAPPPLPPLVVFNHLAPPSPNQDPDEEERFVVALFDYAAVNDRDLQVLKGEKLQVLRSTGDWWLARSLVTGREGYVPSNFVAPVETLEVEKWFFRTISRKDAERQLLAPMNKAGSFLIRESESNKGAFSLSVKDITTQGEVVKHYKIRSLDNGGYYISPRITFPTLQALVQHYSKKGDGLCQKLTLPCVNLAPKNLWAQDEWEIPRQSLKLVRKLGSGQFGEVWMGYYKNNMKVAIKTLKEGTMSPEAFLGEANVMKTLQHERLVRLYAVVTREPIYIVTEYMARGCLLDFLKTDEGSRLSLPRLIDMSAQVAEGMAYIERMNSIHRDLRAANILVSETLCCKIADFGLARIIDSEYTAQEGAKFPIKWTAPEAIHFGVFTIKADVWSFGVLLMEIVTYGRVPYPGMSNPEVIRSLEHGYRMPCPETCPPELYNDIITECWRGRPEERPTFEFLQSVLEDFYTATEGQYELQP

## CCN1CCC[C@H]1COc1ccc2cc(-c3n[nH]c4ccc(-c5nc(CC(C)(C)C)n[nH]5)cc34)ccc2c1 [CC005, 2-[((2s)-1-ethylpyrrolidin-2-yl)methoxy]-6-{5-[3-(2,2-Dimethylpropyl)(1H-1,2,4,-triazol-5-yl)](1H-indazol-3-yl)}naphthalene]
Blk(m)
  Inhibitory activity (% of control), Blk(m): 4 % of control
CDK5/p35(h)
  Inhibitory activity (% of control), CDK5/p35(h): 8 % of control
Yes(h)
  Inhibitory activity (% of control), Yes(h): 0 % of control
ROCK-II(h)
  Inhibitory activity (% of control), ROCK-II(h): 2 % of control
ZAP-70(h)
  Inhibitory activity (% of control), ZAP-70(h): 26 % of control

## COc1ccc2cc(-c3n[nH]c4ccc(-c5n[nH]c(CN6CCOCC6)n5)cc34)ccc2c1 [CC001, 3-(6-Methoxynaphthalen-2-yl)-5-(5-Morpholin-4-Ylmethyl-1H-[1,2,4]Triazol-3-yl)-1H-Indazole]
Blk(m)
  Inhibitory activity (% of control), Blk(m): 25 % of control
CDK5/p35(h)
  Inhibitory activity (% of control), CDK5/p35(h): 7 % of control
Yes(h)
  Inhibitory activity (% of control), Yes(h): 2 % of control
ROCK-II(h)
  Inhibitory activity (% of control), ROCK-II(h): 4 % of control
ZAP-70(h)
  Inhibitory activity (% of control), ZAP-70(h): 105 % of control

## CC(C)(C)Cc1nc(-c2ccc3[nH]nc(-c4ccc5cc(OCc6ccccn6)ccc5c4)c3c2)n[nH]1 [CC004, 5-[5-(2,2-Dimethyl-propyl)-1H-[1,2,4]triazol-3-yl]-3-[6-(pyridine-2-ylmethoxy)-naphthalen-2-yl]-1H-indazole]
Blk(m)
  Inhibitory activity (% of control), Blk(m): 43 % of control
CDK5/p35(h)
  Inhibitory activity (% of control), CDK5/p35(h): 10 % of control
Yes(h)
  Inhibitory activity (% of control), Yes(h): 24 % of control
Yes(h); summary of Table 2
  inhibitory activity against Yes, in words: somewhat less inhibitory activity
ROCK-II(h)
  Inhibitory activity (% of control), ROCK-II(h): 5 % of control
ZAP-70(h)
  Inhibitory activity (% of control), ZAP-70(h): 68 % of control

## O=C(NC1CCCC1)c1cccc(-c2n[nH]c3ccc(-c4nc[nH]n4)cc23)c1 [CC007, 3-(5-(1H-1,2,4-triazol-3-yl)(1H-indazol-3-yl))phenyl-N-cyclopentylcarboxamide, reference compound]
Blk(m)
  Inhibitory activity (% of control), Blk(m): 76 % of control
CDK5/p35(h)
  Inhibitory activity (% of control), CDK5/p35(h): 50 % of control
Yes(h)
  Inhibitory activity (% of control), Yes(h): 50 % of control
ROCK-II(h)
  Inhibitory activity (% of control), ROCK-II(h): 69 % of control
ZAP-70(h)
  Inhibitory activity (% of control), ZAP-70(h): 87 % of control

## CC(C)Cc1nc(-c2ccc3[nH]nc(-c4ccc5cc(OCCN6CCCC6)ccc5c4)c3c2)n[nH]1 [CC002, 5-(5-Isobutyl-1H-[1,2,4]Triazol-3-yl)-3-[6-(2-Pyrrolidin-1-yl-Ethoxy)-Naphthalen-2-yl]-1H-Indazole]
Blk(m)
  Inhibitory activity (% of control), Blk(m): 11 % of control
CDK5/p35(h)
  Inhibitory activity (% of control), CDK5/p35(h): 16 % of control
Yes(h)
  Inhibitory activity (% of control), Yes(h): −3 % of control
ROCK-II(h)
  Inhibitory activity (% of control), ROCK-II(h): 2 % of control
ZAP-70(h)
  Inhibitory activity (% of control), ZAP-70(h): 40 % of control

## Fc1ccc(-c2n[nH]c3ccc(-c4n[nH]c(C5CCCC5)n4)cc23)cc1 [CC006, 5-(5-Cyclopentyl-1H-[1,2,4]triazol-3-yl)-3-(4-fluoro-phenyl)-1H-indazole, reference compound]
Blk(m)
  Inhibitory activity (% of control), Blk(m): 60 % of control
CDK5/p35(h)
  Inhibitory activity (% of control), CDK5/p35(h): 12 % of control
Yes(h)
  Inhibitory activity (% of control), Yes(h): 57 % of control
ROCK-II(h)
  Inhibitory activity (% of control), ROCK-II(h): 13 % of control
ZAP-70(h)
  Inhibitory activity (% of control), ZAP-70(h): 77 % of control
